row,Compound,melting point
1,COc1cc2c(cc1OC)-c1c([N+](=O)[O-])sc(=N)n1CC2,220 to 221 °C
2,"CCOc1ccccc1OCC(O)CNC(C)=CC(=O)c1ccc(C)nc1 (single isomer, unassigned; (-))",108 to 109 °C
3,COCCn1nc2c(N)nc3ncccc3c2c1CC(C)(C)C(N)=O,254 to 257 °C
4,COC1CCCCC1(O)c1ccncc1 (stereo not given),98 to 101 °C
5,O=C(O)CNC(=O)c1ccc([N+](=O)[O-])c(F)c1,136 to 138 °C
6,CCOC(=O)C(C#N)(CCN1CCOCC1)c1ccc(C(F)(F)F)cc1 (stereo not given),96 to 97 °C
7,O=C(O)Cc1cc(C(=O)c2ccc(Cl)cc2)sc1-c1ccccc1,142 to 143 °C
8,O=C(O)C1COc2ccc(O)cc2O1 (stereo not given),204 °C
9,CCCCCC(=O)c1c(C)n(C(=O)OC)c(=O)n1C(=O)OC,84 to 86 °C
10,CCCCCCCCN(C[C@H]1CC[C@@H](CN(CCCCCCCC)C(=O)Nc2ccc(N(C)C)cc2)CC1)C(=O)Nc1ccc(N(C)C)cc1,105 to 107 °C
11,CC1(C)CC(NC(=O)c2cc([N+](=O)[O-])cc([N+](=O)[O-])c2)CC(C)(C)N1,220 to 222 °C
12,Clc1ccc(-n2nc3c(c2Br)CCC3)cc1,109 to 112 °C
13,CCCOC[C@]1(OC)CC[C@H]2[C@@H]3CCC4=CC(=O)CCC4=C3[C@@H](c3ccc(C(C)=O)cc3)C[C@@]21C,118 to 120 °C
14,O=C1CCN(c2ccccc2)C(=O)C1=C1SC=CS1,150 to 152 °C
15,Cc1nn(-c2c(Cl)cc(C(F)(F)F)cc2Cl)c(C)c1C=O,82 to 83 °C
16,COC(=O)CCCC#Cc1cc(F)cc(C(F)(F)F)c1,44 to 45 °C
17,COc1ccc(N2CCN(c3ccc(NC(=O)NCC(OC)OC)cc3)CC2)cc1,225 °C
18,COc1ccc(Cn2c(=O)c3ccc(Cl)cc3n(CCCCBr)c2=O)cc1,107 to 109 °C
19,COC(=O)CCC(=O)c1ccccc1NC(=O)CCl,102 °C
20,COc1cc(OC)nc(OC(C(=O)O)C(C)(C)CO)n1 (stereo not given),104 to 110 °C
21,Nc1ccc(C(=O)N2CCC=Cc3sccc32)c(Cl)c1,192 to 200 °C
22,c1cnc(NCCN2CCC(=C3c4sccc4CCn4ccnc43)CC2)nc1,173 °C
23,CC(C)(C)OC(=O)N[C@H]1CC[C@H](CCN2CCCC2)CC1,110 °C
24,O=C1CC(C(=O)O)Oc2ccccc21 (stereo not given),170 to 171 °C
25,COCCOCCOc1cc(OC)c(-c2cccs2)cc1/C=C/C(=O)c1ccc(C(=O)O)cc1,145 to 146 °C

row,Compound,melting point
1,CC(C)(C)OC(=O)N1CCN(c2ccc(OC[C@H]3CCn4cc([N+](=O)[O-])nc4O3)cc2)CC1,207 to 208 °C
2,O=C1C(=O)c2ccccc2C2=C1SCC1(CCN(Cc3ccc(-c4cn[nH]c4)cc3)CC1)O2,190 to 192 °C
3,COc1cc(C(F)(F)F)cc(OC)c1-c1csc(NC(=O)c2cc3ccccc3[nH]2)n1,> 260 °C
4,CC1(C)CCOC1=C(Oc1ccc(Cl)cc1)n1ccnc1,85 to 88 °C
5,COc1ccc(-n2nnc(-c3ccc(F)cc3Cl)c2N)cc1,175 to 177 °C
6,CN(C)c1ccc(NC(=O)N(C[C@@H]2CCCC[C@H]2CN(C(=O)Nc2ccc(N(C)C)cc2)C2CCCCCC2)C2CCCCCC2)cc1 (relative stereo),107 to 112 °C
7,CC(c1ccccc1)c1cc2c(=O)[nH]c(N)nc2s1 (stereo not given),260 to 270 °C
8,CC(C)(N)Cc1c[nH]c2ccc(Cl)cc12,156 to 158 °C
9,O=C1c2ccc(N3CCCCC3)c3cc(Br)cc(c23)C(=O)N1O,134 to 136 °C
10,COc1ccc2c(c1)C(=NOCCCN)c1c-2c(N2CCNCC2)nc2ccccc12,89 to 90 °C
11,CN(C)C1(c2ccccc2)CCC(C(O)CN2Cc3ccccc3C2)CC1 (stereo not given),130 to 135 °C
12,Cc1c(F)c(N2CCC(C)(CN)C2)c(F)c2c1c(=O)c(C(=O)O)cn2C1CC1 (stereo not given),182 to 184 °C
13,CC(=O)OCC1OC(n2ccnc2[N+](=O)[O-])CC1OC(C)=O (stereo not given),155 °C
14,O=C(O)CCCc1cc(-c2ccccc2)nc2ccccc12,125 °C
15,O=c1c2c[nH]c3cccnc3c-2nn1-c1ccccc1,314 to 316 °C
16,CN1CCC(c2c[nH]c3ccc(NS(=O)(=O)c4cccc5ccccc45)cc23)CC1,254 to 256 °C
17,Cc1cccc(N2C(=S)SC(C)C2(C)O)n1 (stereo not given),129 °C
18,CCC(=O)c1sc(SC)c2c1CCc1cnn(C)c1-2,119 to 120 °C
19,O=C(NCc1ccc(C=NNO)cc1)C1Cc2ccccc2N1S(=O)(=O)c1ccc(-c2cccc(C(F)(F)F)c2)cc1 (stereo not given),110 to 115 °C
20,Cc1nc2c(/C=C/c3ccccc3)cccn2c1C,240 to 255 °C
21,Cc1nn(-c2cccnc2)c(-c2ccccc2)c1CC(=O)O,197 to 199 °C
22,CCOP(=O)(OCC)C1CCn2c(=O)c(=O)[nH]c3cc(C(F)(F)F)cc1c32 (stereo not given),250 °C
23,O=C(O)CN1CCC(=C2c3ccccc3COc3ccccc32)CC1,132 to 135 °C
24,C=C1CCC2C3CCC4=CC(=O)C=CC4(C)C3CCC12C (stereo not given),155 to 157 °C
25,Cc1ccc(S(=O)(=O)N2CCCC2c2nnnn2[C@@](C)(Cc2ccc(N(C(=O)OC(C)(C)C)C(=O)C3CCNCC3)cc2)C(=O)O)cc1 (stereo not given in full),180 to 189 °C

row,Compound,melting point
1,Cc1c2c(c(Br)n1C)NC(=O)CN=C2c1ccccc1,200 to 202 °C
2,COc1ccc2nc(Cl)c(OC)nc2c1,79 to 81 °C
3,C#CCOc1c(OC)cc(/C=C/C(=O)/C=C/c2cc(OC)c(OC)c(OC)c2)cc1OC,118 to 120 °C
4,N#Cc1c(N2CCN(C(=O)c3ccco3)CC2)c2cc(F)cnc2[nH]c1=O,312 °C
5,CCC(C)(C)c1csc(C(C#N)=C(O)c2c(F)cccc2F)n1,195 to 196 °C
6,CC(=O)Nc1c(OC(C)=O)cc(C(C)(C)C)cc1[N+](=O)[O-],200 to 201 °C
7,COc1cc(C=C2OC(C)=CC2=O)ccc1O,168 to 170 °C
8,O=C(O)CCCOc1cccc(OCCC(c2ccccc2)(c2ccccc2)c2ccccc2)c1,53 to 55 °C
9,CN1CCc2c(-c3ccc(Cl)cc3)ccc([N+](=O)[O-])c2C1,162 to 163 °C
10,CC1(C)Oc2ccc(C#N)cc2[C@@H](n2ncccc2=O)[C@@H]1O (relative stereo),211 to 215 °C
11,CS(=O)(=O)NCCc1ccncc1,114 to 116 °C
12,Cc1ccc(-c2cn(C)cc(-c3ccccc3)c2=O)cc1,144 °C
13,Cc1cn(NCc2cc(C(C)(C)C)c(O)c(C(C)(C)C)c2)cn1,150 to 151 °C
14,Cc1coc(-c2ccc(-c3ccccc3S(=O)(=O)Nc3onc(C)c3C)cc2)n1,85 to 95 °C
15,CCOC(=O)c1ccc(N2CCN(C(=O)CCc3cc(C(C)(C)C)c(O)c(C(C)(C)C)c3)CC2)cc1,85 to 86 °C
16,CCOC(=O)C(C)Oc1ccc2c(-c3ccc(Cl)cc3)noc2c1 (stereo not given),95 °C
17,O=C(C#Cc1ccc(C(F)(F)F)cc1Cl)Nc1ccc(OCCn2cccn2)cc1,120 to 125 °C
18,C=C(F)c1cc(O)cc2nc(-c3ccc(O)c(F)c3)oc12,213 to 214 °C
19,CCNC(=O)Nc1nc2cc(OCc3ccccc3)cc(Br)c2s1,294 °C
20,CC(C)CC(=O)Nc1cc(-c2ccnc3c(C(=O)c4cccs4)cnn23)ccc1F,192 to 194 °C
21,Cc1ccnc2c(O)cccc12,135 to 136 °C
22,CCCCCCCCCCCCCCCCCC(=O)NCC(C)(C)CO,44 °C
23,CN1CCC(=C2c3ccccc3CCc3ccc(C#N)cc32)CC1,152 to 154 °C
24,CCCn1c(=O)c2c(nn3cc(C4CC4)[nH]c23)n(Cc2ccccc2)c1=O,264 to 265 °C
25,CCCCc1nn(-c2cc([N+](=O)[O-])ccc2Cl)c(C(N)=O)c1Cc1ccc(Br)cc1F,145 to 147 °C

row,Compound,melting point
1,CC1(C2CCCC2)Cc2cc(OCC(=O)O)c(Cl)c(Cl)c2C1=NO (stereo not given),230 °C
2,O=c1oc(-c2ccccc2)ns1,64 to 67 °C
3,COc1ccccc1N1CCc2c(Cl)nc3c(OC)cccc3c21,99 to 101 °C
4,N#CNc1ccccc1-c1ccc(Cl)cc1,106 to 107 °C
5,COCc1nnc(-c2cccnc2)n1-c1c(C)c(Cl)cc2[nH]c(=O)c(=O)[nH]c12,> 300 °C
6,COc1cccc(C(CCCCCCc2ccccc2)CNC(=O)Cc2c(Cl)cncc2Cl)c1 (stereo not given),97 to 98 °C
7,CS(=O)(=O)N1CCN(c2ccc(N)cc2)CC1,192 to 193 °C
8,O=C1NCCNC1c1cn(Cc2ccc(Cl)cc2)c2ccccc12 (stereo not given),195 °C
9,c1ccc2c(c1)CNc1ccccc1N2,114 to 116 °C
10,COc1ccc(O)c2c1C1(CCC2)OCCO1,139 to 140 °C
11,CCCOc1cc(=O)n(CCC)c(=O)n1Cc1ccc(-c2ccccc2C2NOC(=O)N2)cc1 (stereo not given),129 to 132 °C
12,Cc1ccc(S(=O)(=O)NC(CSCC(=O)O)C(=O)O)cc1 (stereo not given),152 °C
13,CCOC(=O)C(=CNc1coc2ccccc2c1=O)C(=O)OCC,155 to 157 °C
14,COc1cc2c(cc1OC)CCC(C(=O)N1CCN(C(=O)c3cc(OC)c(OC)cc3OC)CC1)=C2,171 to 172 °C
15,CN(C)Cc1ccccc1Sc1ccc(F)cc1N,56 to 58 °C
16,N#Cc1c[nH]c2cc(Cl)c([N+](=O)[O-])cc2c1=O,> 300 °C
17,O=C(O)CCCc1cc2nc(Cl)ccc2n1S(=O)(=O)c1ccc2nccnc2c1,103 to 106 °C
18,C[C@@H]1N(c2ccc(C#N)c(Cl)c2)C(=O)C[C@@]1(O)C1CC1,93 to 100 °C
19,Cc1oc(-c2ccc(C(F)(F)F)cc2)nc1COc1ccc(CN(O)C(N)=O)cc1,146 to 147 °C
20,CCCCCCCCCCCCCCCCSCC(CNS(=O)(=O)CCCI)NC(=O)NC (stereo not given),70 to 71 °C
21,COc1c([N+](=O)[O-])cc(C=O)c(Cl)c1OC(C)=O,84 to 85 °C
22,CCC1=Nc2ccc(OCCN3C(=O)c4ccccc4C3=O)cc2C(=O)C1,168 to 171 °C
23,C#CCOc1cc(C(=O)O)cc([N+](=O)[O-])c1-c1ccccc1,145 to 147 °C
24,O=C(O)c1cccnc1C(=O)c1cccc(C(F)(F)F)c1,147 to 150 °C
25,O=C(NC(Cc1ccc(F)cc1)C(=O)O)c1cn2cc(-c3ccc(Cl)cc3)ccc2n1 (stereo not given),266 °C
